Experimental findings from patent US10167270B2, “Substituted quinazoline compounds and uses thereof for modulating glucocerebrosidase activity” (Northwestern University, priority 2015, dated 2019) are described below.

Like-named read-outs stand apart in the source and are kept apart here.

A word on the IC50: it is the concentration that gives 50% inhibition.

This assay concerns the target wild-type GCase (Homo sapiens (Human), UniProt P04062). Put plainly: GCase enzyme activity assay (4MU-β-Glc, no taurocholate). Format: biochemical. The protocol:
In previous studies, high concentrations of taurocholate (4-10 mM) were used to improve the signal in GCase enzyme activity assays^16,27,28. […] Here we describe our modifications of the substituents on the quinazoline ring.
4-Methylumbelliferyl β-D-glucopyranoside (4MU-β-Glc), 4-methylumbelliferyl α-D-glucopyranoside,4-methylumbelliferyl α-D-galactopyranoside, and buffer components were purchased from Sigma-Aldrich (St. Louis, Mo.). The recombinant wild-type GCase enzyme velaglucerase alfa (Vpriv®, Shire Human Genetic Therapies, Inc.), acid α-glucosidase enzyme alglucosidase alfa (Lumizyme®, Genzyme Corporation), α-galactosidase A enzyme agalsidase beta (Fabrazyme®, Genzyme Corporation) were used in activity assays. […] A solution of 1 M sodium hydroxide and 1 M glycine (pH 10) was used as the stop solution for all three enzyme activity assays.
The compounds in DMSO solution (0.5 μL/well) were transferred to a black 96-well plate (the final titration started from 100 μM, a 12 or 24-point 2-fold dilution series). […] After 5 min of incubation at room temperature, the enzyme reaction was initiated by the addition of blue substrate (4MU-13-Glc) (33 μL/well). The final concentration of the blue substrate was 1.5 mM. The blue substrate reaction was terminated by the addition of 33 μL/well stop solution (1 M NaOH and 1 M glycine mixture, pH 10) after 30 min of incubation at 37° C. […] The selected compounds were further assayed under pH 5.0 and pH 7.0 to evaluate their selectivity under various pH conditions.

Where [1] appears, read: Table 1, pH 5.9, mean ± SD, read-out: IC50.
Where [2] appears, read: Table 2, pH 5.9, mean ± SD, read-out: IC50.
Where [3] appears, read: Table 3, pH 5.9, mean ± SD, read-out: IC50.
The mark [4] stands for this setting: Table 4, pH 5.9, mean ± SD, read-out: IC50.

Chain of wild-type GCase (P04062 40-536): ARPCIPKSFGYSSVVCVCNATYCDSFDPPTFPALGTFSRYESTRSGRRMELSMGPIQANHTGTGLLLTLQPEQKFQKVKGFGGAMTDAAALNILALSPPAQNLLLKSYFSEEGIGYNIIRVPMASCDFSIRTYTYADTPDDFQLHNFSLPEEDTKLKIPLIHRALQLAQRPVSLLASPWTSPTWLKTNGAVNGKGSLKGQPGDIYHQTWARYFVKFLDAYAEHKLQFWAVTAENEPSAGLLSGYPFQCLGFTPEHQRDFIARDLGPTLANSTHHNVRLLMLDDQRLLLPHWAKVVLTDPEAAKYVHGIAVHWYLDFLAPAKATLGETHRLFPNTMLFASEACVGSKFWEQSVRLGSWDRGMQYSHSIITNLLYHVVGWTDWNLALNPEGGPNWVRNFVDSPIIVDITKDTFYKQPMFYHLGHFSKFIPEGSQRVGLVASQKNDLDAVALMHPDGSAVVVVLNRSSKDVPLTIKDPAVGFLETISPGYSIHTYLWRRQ

Consider `CC1CCC(Nc2nc(-c3cccnc3)nc3ccccc23)CC1` (single isomer, unassigned) [Compound 6a], for which the IC50 under setting [1] came out at 56 ± 5 nM.
For `CC1CCC(Nc2nc(-c3cccnc3)nc3ccccc23)CC1` (single isomer, unassigned) [Compound 6c], the IC50 under setting [1] amounted to 20 ± 2 nM and the 50% inhibitory concentration (IC50) (read-out: IC50) stood at 20 nM.
For `CCC1CCC(Nc2nc(-c3cccnc3)nc3ccccc23)CC1` (centres unmarked) [Compound 6b], under setting [1], the IC50 is 126 ± 7 nM.
Same read-out and setting: then `COC1CCC(Nc2nc(-c3cccnc3)nc3ccccc23)CC1` (centres unmarked) [Compound 6d], with 251 ± 18 nM; and `CC1(C)CCC(Nc2nc(-c3cccnc3)nc3ccccc23)CC1` [Compound 6e], with 431 ± 42 nM.
Regarding `FC1(F)CCC(Nc2nc(-c3cccnc3)nc3ccccc23)CC1` [Compound 6f], the IC50 under setting [1] turned out to be 234 ± 17 nM.
Consider `CN(C)C1CCC(Nc2nc(-c3cccnc3)nc3ccccc23)CC1` (centres unmarked) [Compound 6g], for which, for the setting “Table 1, pH 5.9, mean ± SD”, the IC50 entry is recorded as “Inactive”.
As to `c1cncc(-c2nc(NC3CCCOC3)c3ccccc3n2)c1` (centres unmarked) [Compound 6h], the IC50 under setting [1] was 891 ± 23 nM.
For the compound `CN1CCC(Nc2nc(-c3cccnc3)nc3ccccc23)CC1` [Compound 6i], the IC50 result (Table 1, pH 5.9, mean ± SD) is given as “Inactive”.
On to `CC(C)N1CCC(Nc2nc(-c3cccnc3)nc3ccccc23)CC1` [Compound 6j], for which the IC50 under setting [1] was 33200 ± 9710 nM.
On to `c1ccc(CN2CCC(Nc3nc(-c4cccnc4)nc4ccccc34)CC2)cc1` [Compound 6k], for which the IC50 under setting [1] is 36100 ± 8720 nM.
For the compound `c1cncc(-c2nc(NC3CCCCCCC3)c3ccccc3n2)c1` [Compound 7a], the IC50 under setting [2] was 27 ± 2 nM.
The same measure, in the same setting: with `c1cncc(-c2nc(NC3CCCCCC3)c3ccccc3n2)c1` [Compound 7b] the figure was 42 ± 3 nM.
The same measure, in the same setting: with `c1cncc(-c2nc(NC3CCCC3)c3ccccc3n2)c1` [Compound 7c] the figure was 720 ± 50 nM.
`c1cncc(-c2nc(NC3CCC3)c3ccccc3n2)c1` [Compound 7d]: the IC50 under setting [2] came to 2840 ± 340 nM.
Still for that read-out and setting: with `c1cncc(-c2nc(NC3CC3)c3ccccc3n2)c1` [Compound 7e] the figure was 28100 ± 3210 nM; with `c1cncc(-c2nc(NC34CC5CC(CC(C5)C3)C4)c3ccccc3n2)c1` [Compound 7f], 926 ± 80 nM.
On the same count and under the same terms, then `c1cncc(-c2nc(NC3CC4CCC3C4)c3ccccc3n2)c1` (centres unmarked) [Compound 7g], with 282 ± 43 nM; and `c1cncc(-c2nc(NCC3CCCCC3)c3ccccc3n2)c1` [Compound 7h], with 405 ± 40 nM.
On the same count and under the same terms, then `c1cncc(-c2nc(NCCC3CCCCC3)c3ccccc3n2)c1` [Compound 7i], with 857 ± 33 nM.
On to `c1ccc(CNc2nc(-c3cccnc3)nc3ccccc23)cc1` [Compound 8b], for which, under setting [3], the IC50 was 5770 ± 820 nM.
Still for that read-out and setting: with `c1ccc(CCNc2nc(-c3cccnc3)nc3ccccc23)cc1` [Compound 8c] the figure was 97 ± 9 nM; with `c1ccc(CCCNc2nc(-c3cccnc3)nc3ccccc23)cc1` [Compound 8d], 1530 ± 220 nM.
For the compound `c1ccc(CCCCNc2nc(-c3cccnc3)nc3ccccc23)cc1` [Compound 8e], the IC50 under setting [3] came out at 1280 ± 130 nM.
As for `c1ccc(CCNc2nc(-c3cccnc3)nc3ccccc23)nc1` [Compound 8f], the IC50 under setting [3] came to 1400 ± 120 nM.
Still for that read-out and setting: then `c1cncc(CCNc2nc(-c3cccnc3)nc3ccccc23)c1` [Compound 8g], with 4290 ± 570 nM.
In the case of `c1cncc(-c2nc(NC3Cc4ccccc4C3)c3ccccc3n2)c1` [Compound 9c], the IC50 reads like this: under setting [4], 8.3 ± 1 nM; (pH 5.0, mean ± SD, read-out: IC50 pH 5.0) 25.9 ± 3.9 nM; (pH 7.0, mean ± SD, read-out: IC50 pH 7.0) 12.7 ± 1.4 nM.
Consider `c1cncc(-c2nc(NC3CCCc4ccccc43)c3ccccc3n2)c1` (centres unmarked) [Compound 9d], for which the “GCase inhibitory activity in words” value is given as “low micromolar range”. In addition, the IC50 under setting [4] came to 872 ± 71 nM.
The corresponding values for `c1cncc(-c2nc(NC3CCc4ccccc43)c3ccccc3n2)c1` (centres unmarked) [Compound 9e] are “low micromolar range” and 821 ± 73 nM.
Take `Cc1ccncc1-c1nc(NC2Cc3ccccc3C2)c2ccccc2n1` [Compound 11a, N-(2,3-dihydro-1H-inden-2-yl)-2-(4-methylpyridin-3-yl)quinazolin-4-amine]: the IC50 (Table 5, pH 5.9, mean ± SD, read-out: IC50) was found to be 122 ± 12 nM.
